Here are results for 1 substance from article PMC6572135, “N-Methyl-D-glucamine–Calix[4]resorcinarene Conjugates: Self-Assembly and Biological Properties” (Molecules, 2019).

The data set in a line: Conductometry, critical aggregation concentration. In kind it is physicochemical. Particulars: water solution, 25 °C; GCR-2 in the presence of two-fold excess of MG. The procedure:
Firstly, self-assembly of GCR-1 was studied by conductometric measurements (Figure 1). Specific conductivity increases proportionately with the GCR-1 concentration in water solution. Inflection on the plot appears at 14 mM, and after this critical aggregation concentration (CAC) the increment rate of conductivity reduces because the aggregates transfer charge less efficiently than monomers. Remarkably, modification of calix[4]resorcinarene by N-methyl-D-glucamine fragment facilitates self-aggregation of macrocycle in water medium (Figure 1). The CAC value for calix[4]resorcinarene (CR-1) without meglumine units at the upper rim is 20 mM that is greater than that for meglumine-modified calix[4]resorcinarene. The driving forces of intermolecular aggregates’ formation are probably hydrogen bonds between hydroxyl groups on the GCR-1 upper rim, so the presence of additional OH-groups in the meglumine group reinforces this noncovalent interaction. A stable pH value, which can be observed over a wide range of concentrations, verifies that the N-methyl-D-glucamine fragment is an effective buffer component (Figure S4). […] As a result, the aggregation of this calix[4]resorcinarene was studied in water solutions at the presence of two-fold excess of N-methyl-D-glucamine (MG). […] Specific conductivity values were measured at least three times for each concentration. […]

As for “Sulfonatoethylcalix[4]resorcinarene [CR-1, reference compound]”, the “CAC, conductometry” value was 20 mM.
